Assay results published in PubChem BioAssay AID179 (DTP/NCI, 2004).
Several values for one entry are separate records, joined by “and”; a condition that tells them apart may be missing. Identical values can stand only once. Activity calls are given as the source filed them.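 Rule for the calls: active = compounds giving half or more protection of infected cells from virus-caused growth loss, again on retest; inactive = the rest.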

Tested on: CEM cells HIV-1 protection, formazan growth assay
Test: NCI AIDS Antiviral Assay
Details: for IC50: measured here: growth of uninfected CEM cells
Outline: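 Screen of anti-HIV-1 activity in human CEM cells using a formazan-based growth measurement at five drug concentrations. Hits with 50% or greater protection were repeated, and confirmation required reproducible complete protection.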

SMILES: COC1(OC)N=C(N)C2(C#N)C3(C(=O)N(C(C)C)N=C3C)C12C#N (configuration not stated)
- EC50: > 200 µM
- IC50: > 200 µM

SMILES: Nc1nc(Cl)cc2nsnc12
- EC50: > 28.2 µM
- IC50: > 28.2 µM

SMILES: C/C(Cl)=N\OC(=O)Nc1ccccc1C(F)(F)F
- EC50: > 200 µM
- IC50: 33.1 µM

SMILES: N#CN1CCC=C(c2cc3ccccc3[nH]2)C1
- EC50: > 115 µM
- IC50: 60.3 µM

SMILES: CCOC(CNCCC(=O)OC)OCC
- outcome: inactive

SMILES: CCOc1cc(NCCCN)c2nc(OCc3ccccc3)ccc2c1
- EC50: > 200 µM
- IC50: 25.7 µM

SMILES: Cn1c(=O)nc2n(-c3ccc(F)cc3)c3ccccc3nc-2c1=O
- outcome: inactive

SMILES: Nc1ccc(N=Nc2ccccc2)c(N)n1
- EC50: > 200 µM
- IC50: 32.4 µM

SMILES: Cc1cccc(C=C2C(=O)NC(=O)NC2=O)c1
- EC50: > 407 µM
- IC50: > 407 µM

SMILES: CC(C)=C1C(=O)C[C@@]2(C)C[C@H]3OC3(C)CC/C=C(/C)CCC12 (some centres not stated)
- outcome: inactive

SMILES: CN(C)c1ccc(/C=C/C=C2\C=Cc3ccccc32)cc1
- EC50: > 36.3 µM
- IC50: > 36.3 µM

SMILES: COc1cc(/C=C2/SC(c3ccccc3)N(c3ccc(NC(C)=O)cc3)C2=O)cc(OC)c1OC (configuration not stated)
- EC50: > 200 µM
- IC50: 117 µM

SMILES: CCCCCCCCCCn1cccc1/C=C/c1ccc(/C=C/c2cccn2CCCCCCCCCC)cc1
- outcome: inactive

SMILES: COc1ccc(NC(=S)Nc2cc(C)ccn2)cc1
- EC50: > 200 µM
- IC50: > 200 µM

SMILES: CC(=O)Nc1ccc(N)c2cc(S(=O)(=O)O)ccc12
- EC50: > 200 µM
- IC50: > 200 µM

SMILES: CCCn1ccc(=O)c(O)c1C
- EC50: > 200 µM
- IC50: 35.5 µM

SMILES: c1ccc2c(c1)ccn2CCc1c[nH]c2ccccc12
- EC50: > 200 µM
- IC50: > 200 µM

SMILES: NCCCCNOCCCN
- EC50: > 200 µM
- IC50: > 200 µM

SMILES: CSCCC(NOC(=O)Cc1ccccc1)P(=O)(O)c1ccccc1 (configuration not stated)
- EC50: 195 µM
- IC50: 240 µM

SMILES: O=C(O)C(=Cc1ccc(-c2ccccc2)cc1)C(=O)O
- EC50: > 251 µM
- IC50: 15.5 µM

SMILES: CN1C(=O)C(CCO)(C(C)(C)C)c2ccccc21 (configuration not stated)
- EC50: > 200 µM
- IC50: > 200 µM

SMILES: COc1c2c(nc3ccccc13)-c1cc(C(CC(=O)OC(C)(C)C)C(=O)OC(C)C)c(CO)c(=O)n1C2 (configuration not stated)
- EC50: > 28.8 µM
- IC50: 0.479 µM

SMILES: CCOC1N(C2CC(N=[N+]=[N-])C(CO)O2)C(=O)NC(=O)C1(C)Br (configuration not stated)
- EC50: 0.00813 µM and 0.00631 µM
- IC50: 22.4 µM and 17.4 µM

SMILES: Cc1ccc(N(C=O)c2c([N+](=O)[O-])cc([N+](=O)[O-])c3c2=[N+]([O-])CN=3)cc1
- EC50: > 7.59 µM
- IC50: > 7.59 µM

SMILES: Nc1cc([As](=O)(O)O)ccn1
- EC50: > 200 µM
- IC50: > 200 µM

SMILES: CC1Cn2c(Cc3ccccc3)nnc2S1 (configuration not stated)
- outcome: inactive

SMILES: O=S(Cc1ccccc1)/C(=C/n1c(=S)[nH]c2ccccc21)c1ccccc1 (configuration not stated)
- EC50: > 200 µM
- IC50: > 200 µM

SMILES: C=C(COCO)C(C)=O
- EC50: > 200 µM
- IC50: 1.45 µM

SMILES: COC(=O)C(Nc1ccc(OC)cc1)c1ccccc1 (configuration not stated)
- EC50: > 200 µM
- IC50: 148 µM

SMILES: C[n+]1cn(CC(=O)c2ccccc2)c(C(N)=O)c1N
- EC50: > 263 µM
- IC50: 214 µM

SMILES: Cc1ccc(O)c(C(c2ccc([N+](=O)[O-])cc2)c2cc(C)ccc2O)c1
- outcome: inactive

SMILES: Cc1ccc([N+](=O)[O-])cc1/C(C#N)=C/c1ccccc1
- EC50: > 200 µM
- IC50: 33.1 µM

SMILES: CC(=O)CC1(O)C(=O)Nc2ccccc21 (configuration not stated)
- EC50: > 200 µM
- IC50: > 200 µM

SMILES: CCNCC(=O)O[C@]1(CC)C(=O)OCc2c1cc1n(c2=O)Cc2cc3ccccc3nc2-1
- EC50: > 10 µM
- IC50: 0.0708 µM

SMILES: CCOC(=O)C1=NN(c2ccc(C)cc2)C2(c3ccccc3)C=C(c3ccccc3)N(C)CCN12 (configuration not stated)
- EC50: > 200 µM
- IC50: 145 µM

SMILES: COC(=O)c1ccccc1C1CN=NC12Cc1ccc3ccccc3c1C2=O (configuration not stated)
- EC50: > 200 µM
- IC50: > 200 µM

SMILES: C=C1CCc2occ(C)c2C2C1C1=C(CC(C)C1=O)C1OC12C (configuration not stated)
- EC50: > 219 µM
- IC50: > 219 µM

SMILES: CC(=O)C1CC=C(C)CC1 (configuration not stated)
- EC50: > 1820 µM
- IC50: 141 µM

SMILES: OCCO[P+]1(OCCO)n2c3ccc2C(c2ccccc2)=C2C=CC(=N2)C(c2ccccc2)=c2ccc(n21)=C(c1ccccc1)C1=NC(=C3c2ccccc2)C=C1
- EC50: > 0.2 µM
- IC50: 0.0813 µM

SMILES: COC(=O)c1cc(C(=O)OC)c(C/C(=N/Nc2ccc([N+](=O)[O-])cc2[N+](=O)[O-])C(=O)Nc2cccc(C(F)(F)F)c2)nc1C/C(=N/Nc1ccc([N+](=O)[O-])cc1[N+](=O)[O-])C(=O)Nc1cccc(C(F)(F)F)c1
- EC50: > 200 µM
- IC50: 70.8 µM

SMILES: CC1(C)C2CCC13CS(=O)(=O)N(C(=O)[C@H]1CC=CCC1)C3C2 (some centres not stated)
- EC50: > 112 µM
- IC50: > 112 µM

SMILES: CC12C(=O)OCC1C1CCC2C1 (configuration not stated)
- EC50: > 537 µM
- IC50: > 537 µM

SMILES: O=c1oc2ccccc2cc1/C=N/N1C(=S)N(c2ccccc2)C(=Nc2ccccc2)C1=Nc1ccccc1
- EC50: > 200 µM
- IC50: > 200 µM

SMILES: COC(=O)C1[C@@H](C(=O)OC)C12C=Cc1ccccc1C=C2 (some centres not stated)
- EC50: > 200 µM
- IC50: > 200 µM

SMILES: CC(C)(C)OC(=O)NC1CC=CCC1NC(=O)OC(C)(C)C (configuration not stated)
- EC50: > 200 µM
- IC50: > 200 µM

SMILES: CCC(/C=C/C1OC(=O)C=CC1C)=C\C(C)C/C=C/C(C)=C/C(C)C(=O)C(C)C(O)C(C)C/C(C)=C/C(=O)O (configuration not stated)
- outcome: inactive

SMILES: COC(=O)C(CCc1ccccc1I)C1=CCC2(CC1)OCCO2 (configuration not stated)
- EC50: > 200 µM
- IC50: 38 µM

SMILES: C/C=C/C(=O)[O-].C/C=C/C(=O)[O-].N.N.N.N.[Co+3].[O-][Cl+3]([O-])([O-])[O-]
- outcome: inactive

SMILES: CC1(C)c2ccccc2C(C)(C)C(C(=O)Nc2ccccc2)C1C(=O)O (configuration not stated)
- outcome: inactive

SMILES: Cc1cc(S(=O)(=O)Nc2nc3ncccc3[nH]2)c(S)cc1Cl
- EC50: 33.1 µM
- IC50: > 200 µM

SMILES: COc1ccc(C(=C(c2ccc(OC)cc2)c2ccc(OC)cc2)c2ccc(OC)cc2)cc1
- EC50: > 100 µM
- IC50: 46.8 µM

SMILES: Cc1ccc(NC(=O)C2C(=O)C(=O)N(c3ccc(C)cc3)C2=O)cc1 (configuration not stated)
- EC50: > 15.5 µM
- IC50: > 15.5 µM

SMILES: CCOP(=O)(OCC)OCCOCCOP(=O)(OCC)OCC
- EC50: > 200 µM
- IC50: > 200 µM

SMILES: COc1ccc(/C=C/C(=O)c2cc(OC)cc(OC)c2)cc1
- EC50: > 200 µM
- IC50: 0.955 µM

SMILES: CC(C)CC(NC(=O)C(Cc1ccccc1)NC(=O)CNC(=O)CNC(=O)C(N)Cc1ccc(O)cc1)C(=O)NC1C(O)OC(CO)C(O)C1O (configuration not stated)
- EC50: > 2190 µM
- IC50: > 2190 µM

SMILES: COc1cccc(/C=N/NC(=O)c2ccccc2[O-])c1[O-].[Cu+2].[OH3+]
- EC50: > 200 µM
- IC50: > 200 µM

SMILES: NC(=O)C1(c2ccccc2)Nc2ccccc2S1 (configuration not stated)
- EC50: > 977 µM
- IC50: 102 µM

SMILES: Nc1nc2c(-c3ccc([N+](=O)[O-])cc3)nnn2c2cccc(Cl)c12
- EC50: > 3.98 µM
- IC50: > 3.98 µM

SMILES: [Cl][Ho]([Cl])[Cl]
- EC50: > 162 µM
- IC50: > 162 µM

SMILES: CCCC/C=C/Cc1[nH]c2ccccc2c(=O)c1C
- EC50: > 28.2 µM

SMILES: CO/C(=N\N=C\c1ccc(OC)cc1OC)c1ccncc1
- EC50: > 229 µM
- IC50: 105 µM

SMILES: O=c1c2ccccc2[nH]c2c(Cl)cc(Cl)c(NC3CCCCC3)c12
- EC50: > 200 µM
- IC50: 28.2 µM

SMILES: C=CC1CN2CCC1CC2C(=O)c1ccnc2ccccc12 (configuration not stated)
- EC50: > 200 µM
- IC50: 97.7 µM

SMILES: C=C(Br)C[N+]12CN3CN(CN(C3)C1)C2
- EC50: > 200 µM
- IC50: 55 µM

SMILES: CNC(=S)N/N=C1\CC(c2ccccc2)Oc2ccccc21 (configuration not stated)
- outcome: inactive

SMILES: O=Nc1cc(S(=O)(=O)O)c2cccnc2c1O
- EC50: > 200 µM
- IC50: 52.5 µM

SMILES: CCCCCCCCCCCCCCCCCC(=O)OCCO
- outcome: inactive
